Data published in patent US10898481B2 (priority 2018, dated 2021).
Where two headings read alike, the source gives them in different places.

Legend:
hA3/CHO = hA3/CHO (Homo sapiens (Human), UniProt P0DMS8); test: cell-based
Method: hA2a/CHO, hA2b/CHO, hA3/CHO and mA2a/CHO (Genscript) were plated at 5×10^3 cells/well into 384-well polystyrene plates at the day of experiment. Compounds were pre-incubated with cells for 30 min at 37° C., 5% CO2. Then 10 μM adenosine was added to the cells and incubated for 30 min at 37° C., 5% CO2. Detection reagent (CISBIO) was added and the plates were incubated for 60 min at room temperature. The signal was captured by Envision.

[1] = target: hADORA1/CHO (hA1 expressing) cells (Homo sapiens (Human), UniProt P30542); test: cell-based; conditions: FLIPR inhibition, 10 μM adenosine, read-out: cAMP & FLIPR IC50 (nM) hA1
Sequence of hADORA1/CHO (hA1 expressing) cells (P30542 whole entry): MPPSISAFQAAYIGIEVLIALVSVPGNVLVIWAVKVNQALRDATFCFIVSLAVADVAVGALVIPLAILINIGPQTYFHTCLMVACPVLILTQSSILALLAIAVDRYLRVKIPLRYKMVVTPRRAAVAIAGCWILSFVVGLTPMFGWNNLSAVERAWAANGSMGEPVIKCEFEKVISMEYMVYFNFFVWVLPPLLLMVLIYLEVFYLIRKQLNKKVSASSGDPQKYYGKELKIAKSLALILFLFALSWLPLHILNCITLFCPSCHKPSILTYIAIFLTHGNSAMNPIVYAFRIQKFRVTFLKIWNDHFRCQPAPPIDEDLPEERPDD
Method: hADORA1/CHO (hA1 expressing) cells (Genscript) were plated at 1×10^4 cells/well into 384-well polystyrene plates one day before starting the experiment. On the day of experiment, the supernatant was discard and replaced with 40 μL of dye (FLIPR calcium 5 Assay Kit) per well and the plates were incubated for 60 mins at 37° C. plus 5% CO2. Then testing compounds were added at different concentrations for FLIPR™ inhibition assay. After a 400s incubation with compound, 10 μM adenosine was added into the cells, and the signal was captured by FLIPR.

mA2a/CHO = mA2a/CHO (Mus musculus (Mouse), UniProt Q60613); test: cAMP inhibition assay in mA2a/CHO cells, 10 μM adenosine; format: cell-based; conditions: read-out: cAMP & FLIPR IC50 (nM) mA2a;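 also: compounds preincubated 30 min at 37 °C before the adenosine challenge, then 30 min further stimulation, readout after 60 min detection reagent incubation at room temperature in 384-well plates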
Sequence of mA2a/CHO (Q60613 whole entry): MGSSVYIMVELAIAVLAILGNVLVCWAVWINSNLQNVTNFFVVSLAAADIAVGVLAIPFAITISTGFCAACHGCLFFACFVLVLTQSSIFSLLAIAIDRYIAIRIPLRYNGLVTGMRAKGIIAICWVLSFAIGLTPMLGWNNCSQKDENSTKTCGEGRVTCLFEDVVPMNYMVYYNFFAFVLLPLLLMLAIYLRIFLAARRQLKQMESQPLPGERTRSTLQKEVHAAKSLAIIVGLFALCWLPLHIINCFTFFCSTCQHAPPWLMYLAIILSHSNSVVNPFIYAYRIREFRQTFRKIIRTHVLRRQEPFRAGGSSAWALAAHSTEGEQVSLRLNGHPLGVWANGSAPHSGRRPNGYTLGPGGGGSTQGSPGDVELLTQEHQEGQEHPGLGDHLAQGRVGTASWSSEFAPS

hA2b/CHO = hA2b/CHO (Homo sapiens (Human), UniProt P29275); test: cAMP inhibition assay in hA2b/CHO cells, 10 μM adenosine; format: cell-based; conditions: read-out: cAMP & FLIPR IC50 (nM) hA2b;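 also: cells exposed to compound 30 min at 37 °C, then stimulated with adenosine a further 30 min, cAMP read after 60 min at room temperature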
Sequence of hA2b/CHO (P29275 whole entry): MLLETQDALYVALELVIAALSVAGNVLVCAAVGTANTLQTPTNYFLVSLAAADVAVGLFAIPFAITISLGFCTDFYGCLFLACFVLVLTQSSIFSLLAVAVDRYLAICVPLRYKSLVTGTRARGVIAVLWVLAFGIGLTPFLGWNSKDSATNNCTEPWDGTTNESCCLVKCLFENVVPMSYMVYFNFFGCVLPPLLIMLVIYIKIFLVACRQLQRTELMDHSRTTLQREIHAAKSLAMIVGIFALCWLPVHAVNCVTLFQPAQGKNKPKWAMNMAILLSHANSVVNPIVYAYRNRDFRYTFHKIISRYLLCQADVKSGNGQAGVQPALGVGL

hA2a/CHO = hA2a/CHO (Homo sapiens (Human), UniProt P29274); test: cAMP inhibition assay in hA2a/CHO cells, 10 μM adenosine; format: cell-based; conditions: read-out: cAMP & FLIPR IC50 (nM) hA2a;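 also: compounds added to cells 30 min ahead of adenosine, then a further 30 min at 37 °C with adenosine before cAMP detection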
Sequence of hA2a/CHO (P29274 whole entry): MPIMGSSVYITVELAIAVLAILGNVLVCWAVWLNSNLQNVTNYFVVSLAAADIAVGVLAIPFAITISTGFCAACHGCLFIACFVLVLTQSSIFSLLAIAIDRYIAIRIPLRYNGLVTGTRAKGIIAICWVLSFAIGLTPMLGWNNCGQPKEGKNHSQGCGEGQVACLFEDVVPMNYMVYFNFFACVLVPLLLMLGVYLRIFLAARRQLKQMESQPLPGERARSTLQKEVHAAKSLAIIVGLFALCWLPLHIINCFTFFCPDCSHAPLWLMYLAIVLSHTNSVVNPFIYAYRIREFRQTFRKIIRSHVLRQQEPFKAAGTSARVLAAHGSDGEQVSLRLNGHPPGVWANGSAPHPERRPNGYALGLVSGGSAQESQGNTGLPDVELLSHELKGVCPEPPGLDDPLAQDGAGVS

hA2a = hA2a (Homo sapiens (Human), UniProt P29274); test: Radioligand binding to hA2a membrane with [3H]-CGS21680
Sequence of hA2a (P29274 whole entry): as above
From the text: The empty boxes in the tables below indicate data not collected yet.

[2] = read-out: Binding Affinity (IC50 nM) hA2a
[3] = Binding Affinity (IC50 nM) hA2a

Sequence of hA3/CHO (P0DMS8 whole entry): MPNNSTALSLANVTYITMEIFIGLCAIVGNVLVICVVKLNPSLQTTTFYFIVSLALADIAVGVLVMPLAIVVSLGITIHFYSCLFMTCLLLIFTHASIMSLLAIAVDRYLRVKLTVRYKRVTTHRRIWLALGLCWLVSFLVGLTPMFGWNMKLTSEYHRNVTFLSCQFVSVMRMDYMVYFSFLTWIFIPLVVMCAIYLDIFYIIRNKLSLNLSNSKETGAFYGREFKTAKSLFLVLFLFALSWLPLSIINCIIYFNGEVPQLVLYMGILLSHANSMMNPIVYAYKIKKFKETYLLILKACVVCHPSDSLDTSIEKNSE

Row | Structure (SMILES) | IC50 (hA3/CHO) [nM] | IC50 [1] [nM] | IC50 (mA2a/CHO) [nM] | IC50 (hA2b/CHO) [nM] | IC50 (hA2a/CHO) [nM] | IC50 (hA2a; [2]) [nM] | IC50 (hA2a; [3]) [nM]
1 | Cn1cc(-c2nc(C(=O)NCc3cccc(N4CCCC4)n3)c(N)nc2-c2ncco2)ccc1=O [Example 28, 3-amino-6-(1-methyl-6-oxo-1,6-dihydropyridin-3-yl)-5-(1,3-oxazol-2-yl)-N-[[6-(pyrrolidin-1-yl)pyridin-2-yl]methyl]pyrazine-2-carboxamide] | ≥ 10000 | 4900 | 160 | ≥ 10000 | 129 | – | –
2 | Cc1cc(-c2nc(C(=O)NCc3c(F)cccc3F)c(N)nc2-c2ncco2)ccn1 [Example 10, 3-amino-N-(2,6-difluorobenzyl)-6-(2-methylpyridin-4-yl)-5-(oxazol-2-yl) pyrazine-2-carboxamide] | ≥ 10000 | 58 | 41 | 17 | 17 | – | –
3 | Cc1cc(-c2nc(C(=O)NCc3cccc(N(C)C)n3)c(N)nc2-c2ccc(F)cc2)cc(C)n1 [Example 9, 3-amino-N-[[6-(dimethylamino)pyridin-2-yl]methyl]-6-(2,6-dimethylpyridin-4-yl)-5-(4-fluorophenyl)pyrazine-2-carboxamide] | ≥ 10000 | 1000 | 25 | ≥ 10000 | 5.4 | – | –
4 | Cn1cc(-c2nc(C(=O)NCc3ncccc3C(F)(F)F)c(N)nc2-c2ncco2)ccc1=O [Example 11, 3-amino-6-(1-methyl-6-oxo-1,6-dihydropyridin-3-yl)-5-(oxazol-2-yl)-N-((3-(trifluoromethyl)pyridin-2-yl)methyl)pyrazine-2-carboxamide] | ≥ 10000 | 4490 | 87 | 1010 | 89 | – | –
5 | CC(NC(=O)c1nc(-c2ccc(=O)n(C)c2)c(-c2ncco2)nc1N)c1c(F)cccc1F (stereo not drawn) [Example 20, 3-amino-N-(1-(2,6-difluorophenyl)ethyl)-6-(1-methyl-6-oxo-1,6-dihydropyridin-3-yl)-5-(oxazol-2-yl) pyrazine-2-carboxamide] | ≥ 10000 | 6610 | 170 | 3600 | 41 | – | –
6 | CN(C)c1ccnc(CNC(=O)c2nc(-c3ccc(=O)n(C)c3)c(-c3ncco3)nc2N)n1 [Example 25, 3-amino-N-((4-(dimethylamino)pyrimidin-2-yl)methyl)-6-(1-methyl-6-oxo-1,6-dihydropyridin-3-yl)-5-(oxazol-2-yl)pyrazine-2-carboxamide] | ≥ 10000 | 3300 | 242 | ≥ 10000 | 125 | – | –
7 | Cc1cc(-c2nc(C(=O)NCc3cccc(N(C)C)n3)c(N)nc2-c2ccc(F)cc2)ccn1 [Example 12, 3-amino-N-((6-(dimethylamino)pyridin-2-yl)methyl)-5-(4-fluorophenyl)-6-(2-methylpyridin-4-yl)pyrazine-2-carboxamide] | 6940 | 414 | 678 | 9030 | 36 | – | –
8 | Nc1nc(-c2ncco2)c(-c2ccc(=O)n(CCO)c2)nc1C(=O)NCc1c(F)cccc1F [Example 41, 3-amino-N-(2,6-difluorobenzyl)-6-(1-(2-hydroxyethyl)-6-oxo-1,6-dihydropyridin-3-yl)-5-(oxazol-2-yl)pyrazine-2-carboxamide] | – | 123 | 13 | 38 | 1.6 | 3.3 | –
9 | Cc1cnc2ccc(-c3nc(C(=O)NCC4CCO4)c(N)nc3-c3ncco3)cn12 (single isomer, unassigned) [Example 134] | – | – | 77 | 314 | 4.3 | – | 5.5
10 | Cn1nc(-c2nc(C(=O)NCc3c(F)cccc3F)c(N)nc2-c2ncco2)ccc1=O [Example 37, 3-amino-N-(2,6-difluorobenzyl)-6-(1-methyl-6-oxo-1,6-dihydropyridazin-3-yl)-5-(oxazol-2-yl)pyrazine-2-carboxamide] | – | 28 | 56 | 95 | 9.3 | 1 | –
11 | Cc1cnc2ccc(-c3nc(C(=O)NCC4CCO4)c(N)nc3-c3ncco3)cn12 (single isomer, unassigned) [Example 135] | – | – | 23 | 182 | 2.3 | – | 2
12 | CC(NC(=O)c1nc(-c2ccc(=O)n(C)c2)c(-c2ncco2)nc1N)c1c(F)cccc1F (single isomer, unassigned) [Example 40, 3-amino-N-(1-(2,6-difluorophenyl)ethyl)-6-(1-methyl-6-oxo-1,6-dihydropyridin-3-yl)-5-(oxazol-2-yl)pyrazine-2-carboxamide] | – | 10000 | 211 | 1350 | 51 | – | 5.2
13 | CC(O)Cn1cc(-c2nc(C(=O)NCc3c(F)cccc3F)c(N)nc2-c2ncco2)ccc1=O (single isomer, unassigned) [Example 108, 3-amino-N-(2,6-difluorobenzyl)-6-(1-(2-hydroxypropyl)-6-oxo-1,6-dihydropyridin-3-yl)-5-(oxazol-2-yl)pyrazine-2-carboxamide] | – | 55 | 3.6 | 132 | 0.6 | – | –
14 | COc1ccccc1CNC(=O)c1nc(-c2cc(C)nc(C)c2)c(-n2nccc2C)nc1N [Example 74, 3-amino-6-(2,6-dimethylpyridin-4-yl)-N-(2-methoxybenzyl)-5-(5-methyl-1H-pyrazol-1-yl)pyrazine-2-carboxamide] | – | 216 | 1950 | ≥ 10000 | 44 | – | –
15 | COc1cccc(CNC(=O)c2nc(-c3ccc(=O)n(C)c3)c(-c3ncco3)nc2N)n1 [Example 17] | – | 951 | 132 | ≥ 10000 | 117 | – | –
16 | Cc1cc(-c2nc(C(=O)NCc3ccccc3Cl)c(N)nc2-c2ccc(F)cc2)cc(C)n1 [Example 79, 3-amino-N-(2-chlorobenzyl)-6-(2,6-dimethylpyridin-4-yl)-5-(4-fluorophenyl) pyrazine-2-carboxamide] | – | 597 | 540 | ≥ 10000 | 33 | – | –
17 | COC1CCC(NC(=O)c2nc(-c3ccc4ncc(C)n4c3)c(-c3ncco3)nc2N)CC1 (stereo not drawn) [Example 249, 3-amino-N-(4-methoxycyclohexyl)-6-(3-methylimidazo[1,2-a]pyridin-6-yl)-5-(oxazol-2-yl)pyrazine-2-carboxamide] | – | > 10000 | 50 | 423 | 5.7 | – | –
18 | Cc1cnc2ccc(-c3nc(C(=O)NCC4CC(=O)N(C)C4)c(N)nc3-c3ncco3)cn12 (single isomer, unassigned; isomer 2) [Example 210, 3-amino-N-((1-methyl-5-oxopyrrolidin-3-yl)methyl)-6-(3-methylimidazo[1,2-a]pyridin-6-yl)-5-(oxazol-2-yl)pyrazine-2-carboxamide (isomer 2)] | – | 14700 | 88 | 972 | 11 | – | –
19 | CN1CCCC1CNC(=O)c1nc(-c2ccc3ncc(Cl)n3c2)c(-c2ncco2)nc1N (stereo in doubt) [Cmpd. 209, 3-amino-6-[3-chloroimidazo[1,2-a]pyridin-6-yl]-N-[[(2S)-1-methylpyrrolidin-2-yl]methyl]-5-(1,3-oxazol-2-yl)pyrazine-2-carboxamide] | – | > 10000 | 134 | 1260 | 14 | – | –
20 | Cc1ccc(-c2nc(N)c(C(=O)NCc3c(F)cccc3F)nc2-c2ccc(=O)n(C)c2)o1 [Example 2, 3-amino-N-[(2,6-difluorophenyl)methyl]-6-(1-methyl-6-oxo-1,6-dihydropyridin-3-yl)-5-(5-methylfuran-2-yl)pyrazine-2-carboxamide] | – | 26 | 21 | 92 | 0.9 | – | –
21 | CN(C)c1cccc(CNC(=O)c2nc(-c3ccc(=O)n(C)c3)c(-c3ncco3)nc2N)n1 [Example 15, 3-amino-N-[[6-(dimethylamino)pyridin-2-yl]methyl]-6-(1-methyl-6-oxo-1,6-dihydropyridin-3-yl)-5-(1,3-oxazol-2-yl)pyrazine-2-carboxamide] | – | 804 | 86 | ≥ 10000 | 39 | – | –
22 | Nc1nc(-c2ncco2)c(-c2ccc(=O)n(C3CC3)c2)nc1C(=O)NCc1c(F)cccc1F [Example 38, 3-amino-6-(1-cyclopropyl-6-oxo-1,6-dihydropyridin-3-yl)-N-[(2,6-difluorophenyl)methyl]-5-(1,3-oxazol-2-yl)pyrazine-2-carboxamide] | – | 61 | 5.3 | 59 | 2.4 | – | –
23 | CN1CCCC1CNC(=O)c1nc(-c2ccc3ncc(C(F)(F)F)n3c2)c(-c2ncco2)nc1N (single isomer, unassigned) [Cmpd. 202, 3-amino-N-[[1-methylpyrrolidin-2-yl]methyl]-5-(1,3-oxazol-2-yl)-6-[3-(trifluoromethyl)imidazo[1,2-a]pyridin-6-yl]pyrazine-2-carboxamide] | – | 6920 | 105 | 1130 | 17 | – | –
